In ChEMBL document CHEMBL4680202, “Development, synthesis and biological investigation of a novel class of potent PC-PLC inhibitors” (Eur J Med Chem, 2020) one finds Activity data, which are given here for 109 compounds.

SMILES strings stand for the structures.

In the assay the test system is Bacillus cereus. As to the kind of experiment: Inhibition of Bacillus cereus PC-PLC assessed as residual activity at 10 uM using phosphatidylcholine as substrate measured after 1 hr by horseradish peroxidase/alkaline phosphatase/choline oxidase-coupled amplex red reagent based fluorescence assay relative to control.
For `O=C(O)c1cc(NCc2ccc(C(F)(F)F)cc2)ccc1N1CCOCC1`, the Activity turned out to be 45.5%.
For `O=C(O)c1cc(NCc2ccc(-c3ccccc3)cc2)ccc1N1CCOCC1`, the Activity worked out at 40.1%.
For `Cc1ccccc1CNc1ccc(N2CCOCC2)cc1` the value was 2.2%; for `CC(C)(C)OC(=O)N1CCN(c2ccc(NCc3ccccc3Br)cc2)CC1`, 35.6%; for `CN1CCN(c2ccc(NCc3cccc(O)c3)cc2)CC1`, 12.7%.
The same measure for `Cc1cc(C)c(CNc2ccc(N3CCOCC3)c(C(=O)O)c2)c(C)c1`: 45.3%; for `Clc1ccc(CNc2ccc(N3CCNCC3)cc2)cc1`: 31.3%; for `CN1CCN(c2ccc(NCc3cccc(Cl)c3)cc2)CC1`: 19.5%.
On to `COC(=O)c1cc(NCc2ccc(C)cc2)ccc1N1CCOCC1`, for which the Activity was 54.3%.
Take `COC(=O)c1cc(NCc2cccc(Br)c2)ccc1N1CCOCC1`: the Activity amounted to 60.9%.
The same measure for `CN1CCN(c2ccc(NCc3ccc(Cl)cc3)cc2)CC1`: 16.6%.
For `O=C(O)c1cc(NCc2ccccc2C(F)(F)F)ccc1N1CCOCC1` the value was 34.1%; for `COc1ccccc1CNc1ccc(N2CCCCC2)cc1`, 9.9%; for `Cc1ccccc1CNc1ccc(N2CCN(C)CC2)cc1`, 40.9%.
For `COC(=O)c1cc(NCc2ccc(Br)cc2)ccc1N1CCOCC1` the value was 77.3%; for `COc1ccccc1CNc1ccc(N2CCN(C(=O)OC(C)(C)C)CC2)cc1`, 19.9%; for `COC(=O)c1cc(NCc2ccccc2O)ccc1N1CCOCC1`, 38.6%.
`COc1ccccc1CNc1ccc(N2CCOCC2)c(C(=O)O)c1`: the Activity amounted to 32.5%.
For `O=C(O)c1cc(NCc2cccc(C(F)(F)F)c2)ccc1N1CCOCC1` the value was 44.6%; for `Clc1ccc(CNc2ccc(N3CCOCC3)cc2)cc1`, 12.9%; for `Oc1ccccc1CNc1ccc(N2CCOCC2)cc1`, 0%.
For `CC(C)(C)OC(=O)N1CCN(c2ccc(NCc3cccc(Cl)c3)cc2)CC1` the value was 36.8%; for `Fc1cccc(CNc2ccc(N3CCOCC3)cc2)c1`, 6.1%; for `CN1CCN(c2ccc(NCc3ccc(F)cc3)cc2)CC1`, 23.9%.
As for `Clc1ccc(CNc2ccc(N3CCCCC3)cc2)cc1`, the Activity was determined as 23%.
The same measure for `Fc1ccc(CNc2ccc(N3CCNCC3)cc2)cc1`: 21.1%.
For `Brc1ccccc1CNc1ccc(N2CCOCC2)cc1` the value was 14.1%.
The same measure for `COC(=O)c1cc(NCc2ccc(C(F)(F)F)cc2)ccc1N1CCOCC1`: 78.6%; for `CN1CCN(c2ccc(NCc3ccc(O)cc3)cc2)CC1`: 9.4%; for `COC(=O)c1cc(NCc2ccccc2OC)ccc1N1CCOCC1`: 43.7%.
As for `COC(=O)c1cc(NCc2ccccc2Cl)ccc1N1CCOCC1`, the Activity stood at 73.1%.
The same measure for `FC(F)(F)c1cccc(CNc2ccc(N3CCOCC3)cc2)c1`: 23.4%.
For `Clc1ccccc1CNc1ccc(N2CCOCC2)cc1` the value was 7.9%; for `COC(=O)c1cc(NCc2ccc(O)cc2)ccc1N1CCOCC1`, 48.3%.
For `CN1CCN(c2ccc(NCc3ccccc3O)cc2)CC1` the value was 13.4%; for `Clc1cccc(CNc2ccc(N3CCNCC3)cc2)c1`, 27.4%.
On to `Fc1cccc(CNc2ccc(N3CCNCC3)cc2)c1`, for which the Activity came out at 26%.
The same measure for `CC(C)(C)OC(=O)N1CCN(c2ccc(NCc3ccccc3O)cc2)CC1`: 26.5%; for `COc1ccccc1CNc1ccc(N2CCOCC2)cc1`: 1.2%; for `COC(=O)c1cc(NCc2cccc(Cl)c2)ccc1N1CCOCC1`: 65.6%.
For `Cc1ccc(CNc2ccc(N3CCOCC3)cc2)cc1` the value was 5.4%.
With `Cc1cc(C)c(CNc2ccc(N3CCOCC3)cc2)c(C)c1`, the Activity is 28.9%.
As to `COC(=O)c1cc(NCc2ccccc2)ccc1N1CCOCC1`, the Activity was found to be 57.7%.
For `Cc1cccc(CNc2ccc(N3CCOCC3)cc2)c1` the value was 8.3%; for `Clc1ccccc1CNc1ccc(N2CCCCC2)cc1`, 22.6%.
For `Cc1ccccc1CNc1ccc(N2CCNCC2)cc1` the value was 29.3%.
Regarding `Cc1ccccc1CNc1ccc(N2CCN(C(=O)OC(C)(C)C)CC2)cc1`, the Activity worked out at 32.2%.
The same measure for `CC(C)(C)OC(=O)N1CCN(c2ccc(NCc3cccc(O)c3)cc2)CC1`: 18.4%; for `Oc1cccc(CNc2ccc(N3CCOCC3)cc2)c1`: 3.4%.
For `Fc1ccc(CNc2ccc(N3CCCCC3)cc2)cc1` the value was 6.6%; for `COC(=O)c1cc(NCc2ccccc2C)ccc1N1CCOCC1`, 58.4%; for `O=C(O)c1cc(NCc2ccc(Cl)cc2)ccc1N1CCOCC1`, 26.7%.
For `O=C(O)c1cc(NCc2ccc(O)cc2)ccc1N1CCOCC1` the value was 43.8%; for `COC(=O)c1cc(NCc2cccc(O)c2)ccc1N1CCOCC1`, 52.8%.
For `FC(F)(F)c1ccccc1CNc1ccc(N2CCNCC2)cc1`, the Activity amounted to 30.4%.
As for `O=C(O)c1cc(NCc2ccccc2F)ccc1N1CCOCC1`, the Activity was 29.9%.
For `Brc1cccc(CNc2ccc(N3CCOCC3)cc2)c1`, the Activity was 11.6%.
For `Fc1cccc(CNc2ccc(N3CCCCC3)cc2)c1` the value was 10.7%; for `COC(=O)c1cc(NCc2ccc(F)cc2)ccc1N1CCOCC1`, 48.9%.
The same measure for `O=C(O)c1cc(NCc2cccc(Oc3ccccc3)c2)ccc1N1CCOCC1`: 47.5%; for `O=C(O)c1cc(NCc2ccccc2O)ccc1N1CCOCC1`: 40%.
The same measure for `c1ccc(CNc2ccc(N3CCOCC3)cc2)cc1`: 0%; for `Brc1ccccc1CNc1ccc(N2CCNCC2)cc1`: 26.8%; for `Clc1cccc(CNc2ccc(N3CCOCC3)cc2)c1`: 9.1%.
Regarding `COc1ccc(CNc2ccc(N3CCOCC3)c(C(=O)O)c2)cc1`, the Activity was 32.3%.
For `COC(=O)c1cc(NCc2cccc(C(F)(F)F)c2)ccc1N1CCOCC1` the value was 64.1%; for `COC(=O)c1cc(NCc2ccccc2F)ccc1N1CCOCC1`, 56.8%; for `COC(=O)c1cc(NCc2ccc(Cl)cc2)ccc1N1CCOCC1`, 87.5%.
The same measure for `CC(C)(C)OC(=O)N1CCN(c2ccc(NCc3ccccc3Cl)cc2)CC1`: 43.2%.
The same measure for `CN1CCN(c2ccc(NCc3cccc(F)c3)cc2)CC1`: 44.2%; for `COc1cccc(CNc2ccc(N3CCOCC3)c(C(=O)O)c2)c1`: 28.1%.
`O=C(O)c1cc(NCc2ccccc2Cl)ccc1N1CCOCC1`: the Activity came to 11.5%.
For `COC(=O)c1cc(NCc2ccc(OC)cc2)ccc1N1CCOCC1` the value was 58.9%.
The same measure for `COc1ccccc1CNc1ccc(N2CCNCC2)cc1`: 27.7%; for `CN1CCN(c2ccc(NCc3ccccc3F)cc2)CC1`: 42.7%.
The same measure for `Cc1ccc(CNc2ccc(N3CCOCC3)c(C(=O)O)c2)cc1`: 33.4%; for `Oc1ccc(CNc2ccc(N3CCOCC3)cc2)cc1`: 6.5%.
Regarding `CC(C)(C)OC(=O)N1CCN(c2ccc(NCc3ccc(F)cc3)cc2)CC1`, the Activity came out at 68.3%.
Regarding `Clc1ccccc1CNc1ccc(N2CCNCC2)cc1`, the Activity turned out to be 31%.
The same measure for `CC(C)(C)OC(=O)N1CCN(c2ccc(NCc3ccccc3)cc2)CC1`: 42.3%.
On to `CC(C)(C)OC(=O)N1CCN(c2ccc(NCc3cccc(F)c3)cc2)CC1`, for which the Activity turned out to be 33.5%.
For `COC(=O)c1cc(NCc2ccccc2C(F)(F)F)ccc1N1CCOCC1` the value was 83%; for `Oc1ccc(CNc2ccc(N3CCCCC3)cc2)cc1`, 11%.
For `FC(F)(F)c1ccc(CNc2ccc(N3CCOCC3)cc2)cc1` the value was 27.6%; for `COC(=O)c1cc(NCc2cccc(F)c2)ccc1N1CCOCC1`, 64.5%.
Regarding `c1ccc(CNc2ccc(N3CCNCC3)cc2)cc1`, the Activity came out at 26.3%.
The same measure for `CC(C)(C)OC(=O)N1CCN(c2ccc(NCc3ccccc3F)cc2)CC1`: 29.4%; for `COc1ccccc1CNc1ccc(N2CCN(C)CC2)cc1`: 29.3%.
The same measure for `FC(F)(F)c1ccccc1CNc1ccc(N2CCCCC2)cc1`: 49.3%.
Take `CN1CCN(c2ccc(NCc3ccccc3Cl)cc2)CC1`: the Activity was found to be 29.7%.
For `Oc1cccc(CNc2ccc(N3CCNCC3)cc2)c1` the value was 30.9%; for `Oc1ccccc1CNc1ccc(N2CCNCC2)cc1`, 37.9%; for `Oc1cccc(CNc2ccc(N3CCCCC3)cc2)c1`, 7.6%.
For `COC(=O)c1cc(NCc2cccc(Oc3ccccc3)c2)ccc1N1CCOCC1` the value was 130%; for `Oc1ccc(CNc2ccc(N3CCNCC3)cc2)cc1`, 51.3%.
For `O=C(O)c1cc(NCc2cccc(F)c2)ccc1N1CCOCC1` the value was 49.5%; for `COc1cccc(CNc2ccc(N3CCOCC3)cc2)c1`, 5.6%; for `Cc1ccccc1CNc1ccc(N2CCOCC2)c(C(=O)O)c1`, 35%.
Regarding `O=C(O)c1cc(NCc2ccc(F)cc2)ccc1N1CCOCC1`, the Activity is 30.3%.
For `O=C(O)c1cc(NCc2ccc(Br)cc2)ccc1N1CCOCC1` the value was 28.7%; for `CN1CCN(c2ccc(NCc3ccccc3)cc2)CC1`, 31.5%.
The same measure for `O=C(O)c1cc(NCc2cccc(O)c2)ccc1N1CCOCC1`: 41.6%.
For `COc1ccc(CNc2ccc(N3CCOCC3)cc2)cc1` the value was 3.2%.
Turning to `O=C(O)c1cc(NCc2cccc(Br)c2)ccc1N1CCOCC1`, the Activity worked out at 20.4%.
As to `Fc1ccccc1CNc1ccc(N2CCCCC2)cc1`, the Activity came to 9%.
Consider `COC(=O)c1cc(NCc2ccccc2Br)ccc1N1CCOCC1`, for which the Activity is 56.7%.
Take `Brc1ccc(CNc2ccc(N3CCOCC3)cc2)cc1`: the Activity is 18.1%.
As to `Brc1ccccc1CNc1ccc(N2CCCCC2)cc1`, the Activity stood at 28%.
The same measure for `Oc1ccccc1CNc1ccc(N2CCCCC2)cc1`: 14.8%.
